# What was measured:
# [1] = Narrow-range pH-stability profiling at 60° C.; format: physicochemical
# Protocol: (§1) The drug is monitored at a detection wavelength of 232 nm.
# All samples were stored in the dark.
# The phosphate buffers were prepared as previously described. […] Measurement of sample pH was done after HPLC analysis.
# In order to precisely define the most favorable pH, a stronger stressing condition was needed to generate a greater extent of degradation in the lower pH region. For this study, the incubation condition was shifted from 40° C. to 60° C. […] Since the extent of degradation after fourteen (14) days was still less than twenty percent (20%) in most samples, zero-order rate kinetics was used for the degradation curves (concentration versus time). The calculated rate constant was plotted against pH to provide the narrow-range pH-stability profile.
# [2] = Effect of buffer anion on stability, pH 3, 60° C.; format: physicochemical
# Protocol: as §1
# Tightly sealed glass vials containing the test solutions were placed in an oven at 40° C. or 60° C. All samples were stored in the dark. Aliquots were removed at designated time points for HPLC analysis and pH measurement.
# The test buffers included 50 mM sodium phosphate, 50 mM sodium acetate, 50 mM sodium lactate, 50 mM sodium citrate, and 50 mM sodium succinate buffers at pH 3.
# The phosphate and acetate buffers were prepared as described above. The citrate buffer was prepared by adding 9.60 g of citric acid to water, adjusting the pH with 2 N NaOH to pH 3, and bringing the volume to 1 L in a volumetric flask. The lactate buffer was prepared by adding 2.25 g of lactic acid to water, adjusting the pH with 2 N NaOH to pH 3, and bringing the volume to 1L in a volumetric flask. The succinate buffer was prepared by adding 2.95 g succinic acid to water, adjusting the pH with 2 N NaOH to pH 3, and bringing the volume to 1 L in a volumetric flask.
# Measurements of sample pH were done after HPLC analysis.
# [3] = test system: anesthesia by lignocaine admixed with epinephrine; conditions: 0.5-1.5 mg, Example 1, Table 1 of the '714 patent; cited from earlier work
# [4] = Sodium Phosphate Buffer pH 2.0, 60° C., Day 0
# [5] = Sodium Phosphate Buffer pH 2.0, 60° C., Day 2
# [6] = Sodium Phosphate Buffer pH 2.0, 60° C., Day 7
# [7] = Sodium Phosphate Buffer pH 2.0, 60° C., Day 14
# [8] = Sodium Phosphate Buffer pH 2.5, 60° C., Day 0
# [9] = Sodium Phosphate Buffer pH 2.5, 60° C., Day 2
# [10] = Sodium Phosphate Buffer pH 2.5, 60° C., Day 7
# [11] = Sodium Phosphate Buffer pH 2.5, 60° C., Day 14
# [12] = Sodium Phosphate Buffer pH 3.0, 60° C., Day 0
# [13] = Sodium Phosphate Buffer pH 3.0, 60° C., Day 2
# [14] = Sodium Phosphate Buffer pH 3.0, 60° C., Day 7
# [15] = Sodium Phosphate Buffer pH 3.0, 60° C., Day 14
# [16] = Sodium Phosphate Buffer pH 3.4, 60° C., Day 0
# [17] = Sodium Phosphate Buffer pH 3.4, 60° C., Day 2
# [18] = Sodium Phosphate Buffer pH 3.4, 60° C., Day 7
# [19] = Sodium Phosphate Buffer pH 3.4, 60° C., Day 14
# [20] = Sodium Phosphate Buffer pH 4.0, 60° C., Day 0
# [21] = Sodium Phosphate Buffer pH 4.0, 60° C., Day 2
# [22] = Sodium Phosphate Buffer pH 4.0, 60° C., Day 7
# [23] = Sodium Phosphate Buffer pH 4.0, 60° C., Day 14
# [24] = 50 mM Acetate (sodium salt) pH 3.0, 60° C., Day 0
# [25] = 50 mM Acetate (sodium salt) pH 3.0, 60° C., Day 2
# [26] = 50 mM Acetate (sodium salt) pH 3.0, 60° C., Day 7
# [27] = 50 mM Acetate (sodium salt) pH 3.0, 60° C., Day 14
# [28] = 50 mM Phosphate (sodium salt) pH 3.0, 60° C., Day 0
# [29] = 50 mM Phosphate (sodium salt) pH 3.0, 60° C., Day 2
# [30] = 50 mM Phosphate (sodium salt) pH 3.0, 60° C., Day 7
# [31] = 50 mM Phosphate (sodium salt) pH 3.0, 60° C., Day 14
compound,measurement,setting,value
"Cc1ccc(N(CC2=NCCN2)c2cccc(O)c2)cc1 [Phentolamine, phentolamine]",pH at which most stable,"[1]; 50 mM sodium phosphate, 60° C., FIG. 2",3.5
same,Phentolamine Concentration,[1]; [4],98 µg/mL
same,Phentolamine Purity,[1]; [4],100 % peak area
same,Phentolamine Concentration,[1]; [5],98 µg/mL
same,Phentolamine Purity,[1]; [5],99 % peak area
same,Phentolamine Concentration,[1]; [6],93 µg/mL
same,Phentolamine Purity,[1]; [6],96 % peak area
same,Phentolamine Concentration,[1]; [7],81 µg/mL
same,Phentolamine Purity,[1]; [7],92 % peak area
same,Phentolamine Concentration,[1]; [8],99 µg/mL
same,Phentolamine Purity,[1]; [8],99 % peak area
same,Phentolamine Concentration,[1]; [9],96 µg/mL
same,Phentolamine Purity,[1]; [9],97 % peak area
same,Phentolamine Concentration,[1]; [10],78 µg/mL
same,Phentolamine Purity,[1]; [10],92 % peak area
same,Phentolamine Concentration,[1]; [11],79 µg/mL
same,Phentolamine Purity,[1]; [11],86 % peak area
same,Phentolamine Concentration,[1]; [12],96 µg/mL
same,Phentolamine Purity,[1]; [12],99 % peak area
same,Phentolamine Concentration,[1]; [13],93 µg/mL
same,Phentolamine Purity,[1]; [13],97 % peak area
same,Phentolamine Concentration,[1]; [14],91 µg/mL
same,Phentolamine Purity,[1]; [14],95 % peak area
same,Phentolamine Concentration,[1]; [15],84 µg/mL
same,Phentolamine Purity,[1]; [15],91 % peak area
same,Phentolamine Concentration,[1]; [16],97 µg/mL
same,Phentolamine Purity,[1]; [16],99 % peak area
same,Phentolamine Concentration,[1]; [17],95 µg/mL
same,Phentolamine Purity,[1]; [17],98 % peak area
same,Phentolamine Concentration,[1]; [18],96 µg/mL
same,Phentolamine Purity,[1]; [18],97 % peak area
same,Phentolamine Concentration,[1]; [19],91 µg/mL
same,Phentolamine Purity,[1]; [19],94 % peak area
same,Phentolamine Concentration,[1]; [20],97 µg/mL
same,Phentolamine Purity,[1]; [20],99 % peak area
same,Phentolamine Concentration,[1]; [21],95 µg/mL
same,Phentolamine Purity,[1]; [21],98 % peak area
same,Phentolamine Concentration,[1]; [22],94 µg/mL
same,Phentolamine Purity,[1]; [22],97 % peak area
same,Phentolamine Concentration,[1]; [23],89 µg/mL
same,Phentolamine Purity,[1]; [23],96 % peak area
same,Phentolamine Concentration,[2]; [24],96 µg/mL
same,Phentolamine Purity,[2]; [24],100 % peak area
same,Phentolamine Concentration,[2]; [25],95 µg/mL
same,Phentolamine Purity,[2]; [25],98 % peak area
same,Phentolamine Concentration,[2]; [26],94 µg/mL
same,Phentolamine Purity,[2]; [26],97 % peak area
same,Phentolamine Concentration,[2]; [27],89 µg/mL
same,Phentolamine Purity,[2]; [27],96 % peak area
same,Phentolamine Concentration,"[2]; 50 mM Citrate (sodium salt) pH 3.0, 60° C., Day 0",93 µg/mL
same,Phentolamine Concentration,"[2]; 50 mM Citrate (sodium salt) pH 3.0, 60° C., Day 2",87 µg/mL
same,Phentolamine Concentration,"[2]; 50 mM Citrate (sodium salt) pH 3.0, 60° C., Day 7",73 µg/mL
same,Phentolamine Concentration,"[2]; 50 mM Citrate (sodium salt) pH 3.0, 60° C., Day 14",62 µg/mL
same,Phentolamine Concentration,"[2]; 50 mM Lactate (sodium salt) pH 3.0, 60° C., Day 0",97 µg/mL
same,Phentolamine Concentration,"[2]; 50 mM Lactate (sodium salt) pH 3.0, 60° C., Day 2",94 µg/mL
same,Phentolamine Concentration,"[2]; 50 mM Lactate (sodium salt) pH 3.0, 60° C., Day 7",91 µg/mL
same,Phentolamine Concentration,"[2]; 50 mM Lactate (sodium salt) pH 3.0, 60° C., Day 14",83 µg/mL
same,Phentolamine Concentration,[2]; [28],96 µg/mL
same,Phentolamine Purity,[2]; [28],99 % peak area
same,Phentolamine Concentration,[2]; [29],93 µg/mL
same,Phentolamine Purity,[2]; [29],97 % peak area
same,Phentolamine Concentration,[2]; [30],91 µg/mL
same,Phentolamine Purity,[2]; [30],95 % peak area
same,Phentolamine Concentration,[2]; [31],84 µg/mL
same,Phentolamine Purity,[2]; [31],91 % peak area
same,Phentolamine Concentration,"[2]; 50 mM Succinate (sodium salt) pH 3.0, 60° C., Day 0",96 µg/mL
same,Phentolamine Concentration,"[2]; 50 mM Succinate (sodium salt) pH 3.0, 60° C., Day 2",88 µg/mL
same,Phentolamine Concentration,"[2]; 50 mM Succinate (sodium salt) pH 3.0, 60° C., Day 7",74 µg/mL
same,Phentolamine Concentration,"[2]; 50 mM Succinate (sodium salt) pH 3.0, 60° C., Day 14",64 µg/mL
same,rank of buffer preference based on amount of phentolamine recovered at the end of the study,"[2]; pH 3, 60° C., 14 days",sodium acetate>no buffer (water with pH adjusted to pH 3)>sodium phosphate>sodium lactate>sodium succinate>sodium citrate
same,duration of anesthesia,[3],reduction in the duration of anesthesia with increasing amounts

# Reference: patent US20030236306A1, “Stabilized formulations of alpha adrenergic receptor antagonists and the uses thereof” (priority 2002, published 2003)
